Literature values in patent US20080262249A1, “Psorospermin and Analogues” (priority 2004, published 2008).

Key:
[1] = molecular target: T1, topoisomerase II-DNA complex (Drosophila melanogaster, UniProt P15348)
T1 sequence (P15348 1-1447): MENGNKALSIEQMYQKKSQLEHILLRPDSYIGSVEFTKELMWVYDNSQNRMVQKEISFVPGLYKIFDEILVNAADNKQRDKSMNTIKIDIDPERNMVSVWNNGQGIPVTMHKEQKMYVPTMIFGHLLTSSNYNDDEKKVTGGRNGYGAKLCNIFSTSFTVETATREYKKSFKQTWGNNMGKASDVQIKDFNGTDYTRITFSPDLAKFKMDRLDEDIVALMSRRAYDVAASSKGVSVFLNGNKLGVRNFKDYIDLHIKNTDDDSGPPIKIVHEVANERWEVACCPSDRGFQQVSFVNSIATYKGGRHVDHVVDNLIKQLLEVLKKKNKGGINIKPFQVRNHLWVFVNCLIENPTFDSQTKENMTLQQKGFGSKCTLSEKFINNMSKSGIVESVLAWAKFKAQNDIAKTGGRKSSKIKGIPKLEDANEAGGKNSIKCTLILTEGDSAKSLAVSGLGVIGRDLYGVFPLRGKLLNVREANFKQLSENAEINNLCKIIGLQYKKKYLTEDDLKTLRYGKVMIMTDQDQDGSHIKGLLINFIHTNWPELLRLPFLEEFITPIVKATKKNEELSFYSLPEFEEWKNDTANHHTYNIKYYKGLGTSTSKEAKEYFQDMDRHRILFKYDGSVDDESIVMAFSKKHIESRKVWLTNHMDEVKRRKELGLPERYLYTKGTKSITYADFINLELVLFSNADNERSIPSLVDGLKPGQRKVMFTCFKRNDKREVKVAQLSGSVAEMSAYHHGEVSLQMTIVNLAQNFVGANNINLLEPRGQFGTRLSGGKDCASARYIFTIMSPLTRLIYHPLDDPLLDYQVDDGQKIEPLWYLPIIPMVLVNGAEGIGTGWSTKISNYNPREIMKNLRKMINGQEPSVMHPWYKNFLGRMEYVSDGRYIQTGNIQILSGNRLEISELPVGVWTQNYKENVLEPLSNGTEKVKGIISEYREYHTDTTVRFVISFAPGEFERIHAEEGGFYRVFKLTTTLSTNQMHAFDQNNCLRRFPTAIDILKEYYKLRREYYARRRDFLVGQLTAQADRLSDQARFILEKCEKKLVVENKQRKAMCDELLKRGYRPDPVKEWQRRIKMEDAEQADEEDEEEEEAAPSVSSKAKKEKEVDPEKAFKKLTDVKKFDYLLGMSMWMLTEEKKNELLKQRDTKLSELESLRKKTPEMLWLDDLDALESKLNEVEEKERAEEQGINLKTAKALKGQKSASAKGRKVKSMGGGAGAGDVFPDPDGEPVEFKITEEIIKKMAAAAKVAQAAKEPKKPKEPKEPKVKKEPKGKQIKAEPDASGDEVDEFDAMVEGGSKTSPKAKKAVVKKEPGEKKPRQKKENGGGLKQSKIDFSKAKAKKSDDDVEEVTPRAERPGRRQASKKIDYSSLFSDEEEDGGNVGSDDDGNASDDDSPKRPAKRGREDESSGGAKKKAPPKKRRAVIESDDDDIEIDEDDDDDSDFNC

[2] = molecular target: T1, topoisomerase II-DNA complex; remark: listed apart in the source

C/C=C\C1OC1(C)c1cc(=O)c2c(C)cc3c(c2o1)C(=O)c1c(O)c([C@H]2C[C@](C)(N(C)C)[C@@H](OC(C)=O)[C@@H](C)O2)cc([C@@H]2C[C@H](N(C)C)[C@@H](O)[C@@H](C)O2)c1C3=O (some centres unmarked) [pluramycin, reference compound]
effect of increasing topoisomerase II concentration on DNA alkylation ([1]; increasing topoisomerase II concentration): inhibited

COc1cc2c(c3oc4c(O)cccc4c(=O)c13)C[C@H]([C@@]1(C)CO1)O2 [psorospermin]
enhancement of psorospermin alkylation at site A by topoisomerase II ([1]; site A): 3 fold
enhancement of psorospermin alkylation at site B by topoisomerase II ([1]; site B, guanine at +4′ position): 25 fold
reversibility of stimulated topoisomerase II-induced DNA cleavage ([2]; addition of excess salt): slowly reversed
psorospermin-induced DNA cleavage by topoisomerase II, maximum ([2]; site B, 10 μM drug concentration): 3 fold
